The text below walks through data of paper PMC4745926, “Absorption, Metabolism, and Excretion by Freely Moving Rats of 3,4-DHPEA-EDA and Related Polyphenols from Olive Fruits (Olea europaea)” (Journal of Nutrition and Metabolism, 2016).

Several values for one entry are separate records, joined by “and”; a condition that tells them apart may be missing. Equal values may be shown once. Entries after “also recorded” stand apart in the source; their conditions may differ.

Series [1] is described as follows: Biliary excretion after intravenous administration in bile duct-cannulated rats. It counts as in vivo, Wistar ST rats. The method, then: (§1) SPF Wistar ST rats (6 weeks of age, male, 180 ± 20 g of body weight) were purchased from Japan SLC Inc. (Hamamatsu, Japan). The rats were housed in an air-conditioned room at 22 ± 2°C under cycles of 12 hours dark and 12 hours light and given free access to a commercial diet and water for a week. The rats were then fasted for over 16 hours before the experiments. The present study was approved by the Animal Care and Use Committee at Kagawa University, and the rat treatment conformed to the Rules of Animal Experiments at Kagawa University. After fasting, the rats were cannulated with a polyethylene tube (PE-50; 0.58 mm I.D., 0.965 mm O.D.) into the jugular vein, portal vein, or bile duct under anesthesia with isoflurane inhalation using a WP-SAA01 (LMS Co., Ltd., Tokyo, Japan). A small hole was made in the vein or duct using pointed scissors and cannulated with the polyethylene tube. After inserting the tube, it was fixed at the edge of the vein or duct. The jugular vein and portal vein cannulas penetrated under the skin and were then tied at the back of the rats, and the bile duct cannula was tied at the abdomen of the rats. Bile duct-cannulated rats were then restrained in a Bollman cage (Natsume Seisakusho Co., Ltd., Tokyo, Japan). Before further experiments, the rats were allowed to recover from anesthesia. 3,4-[…] (300 mg/kg body weight; 936.51 μmol/kg) dissolved in 50% polyethylene glycol aqueous solution was administered orally via a stomach tube to the portal vein cannulated rats. Blood samples (450 μL) were then collected using a heparinized syringe attached to the cannula before administration and 5, 15, 30, 60, 120, and 240 min after administration. Urine was also collected before administration and 0 to 2 h and 2 to 4 h after administration. For intravenous administration, 3,4-[…] (10 mg/kg; 31.22 μmol/kg) was injected into the jugular vein, and blood (450 μL) was collected using a heparinized syringe before administration and 5, 15, 30, 60, 120, and 240 min after administration via the jugular vein cannula. The blood (450 μL) collected was immediately cooled on ice and centrifuged at 15,000 rpm for 5 min at 4°C to obtain over 200 μL plasma. Urine was also collected before administration and 0 to 2 h and 2 to 4 h after administration. Bile was collected via the bile duct cannula before administration and 0 to 2 h and 2 to 4 h after intravenous administration. The collected plasma, urine, and bile were immediately stored in an ice box until further analyses. HT (oral administration: 100 mg/kg; 648.66 μmol/kg, intravenous administration: 10 mg/kg; 64.87 μmol/kg) and Ole (oral administration: 300 mg/kg; 555.02 μmol/kg, intravenous administration: 10 mg/kg; 18.50 μmol/kg) were investigated using the same method as described above. Metabolites were deconjugated by using β-glucuronidase (500 U) and sulfatase (50 U) in 50 μL 625 mM MOPS (pH 6.8), which was added to 200 μL of plasma, urine, or bile. The mixture was incubated for 45 min at 37°C and subjected to extraction using QuEChERS [33]. […] Shimadzu, Kyoto, Japan) equipped with a Shim-pack XR-ODS column (3.0 mm I.D. × 100 mm; Shimadzu, Kyoto, Japan) at 40°C with a mobile phase of 0.5% TFA-1% acetonitrile aqueous solution (A) and 0.5% TFA-75% acetonitrile aqueous solution (B). The elution conditions are described as follows: isocratic elution of 0% B was maintained for 4.0 min; linear gradient 0 to 4% B, 4.0-4.5 min; linear gradient 4.0-16.0% B, 4.5-16.0 min; linear gradient 16.0-100% B, 16.0-25.0 min; isocratic elution of 100% B, 25.0-26.0 min; and linear gradient 100 to 0% B, 26.0-26.1 min, with a flow rate of 0.5 mL/min. Injection volume was 50 μL. All eluted peaks were detected at 279 nm with a diode array detector (SPD-M20A; Shimadzu, Kyoto, Japan).

Series [2] can be described thus: Urinary excretion after intravenous administration. It counts as in vivo, Wistar ST rats. The method, then:
as §1, with “University.” for “University. After fasting, the rats were cannulated with a polyethylene tube (PE-50; 0.58 mm I.D., 0.965 mm O.D.) into the jugular vein, portal vein, or bile duct under anesthesia with isoflurane inhalation using a WP-SAA01 (LMS Co., Ltd., Tokyo, Japan). A small hole was made in the vein or duct using pointed scissors and cannulated with the polyethylene tube. After inserting the tube, it was fixed at the edge of the vein or duct. The jugular vein and portal vein cannulas penetrated under the skin and were then tied at the back of the rats, and the bile duct cannula was tied at the abdomen of the rats. Bile duct-cannulated rats were then restrained in a Bollman cage (Natsume Seisakusho Co., Ltd., Tokyo, Japan). Before further experiments, the rats were allowed to recover from anesthesia.”

`CC=C(C=O)C(CC=O)CC(=O)OCCc1ccc(O)c(O)c1` (stereo not drawn) [3,4-DHPEA-EDA, 3,4-dihydroxyphenylethyl elenolate dialdehydic form]: in series [1], the “Detection of parent 3,4-DHPEA-EDA in bile” value is “not observed”; the HT in bile was 0.174 % of dose and 0.17 % of dose; the HVA in bile was 0.048 % of dose and 0.05 % of dose; the HVAOH in bile was 0.255 % of dose and 0.26 % of dose. In series [2], the “Detection of intact 3,4-DHPEA-EDA in urine” value is “not observed; also recorded: not detected”, the HT in urine is reported as 6.3 % of dose, the HVA in urine was 2.6 % of dose and the HVAOH in urine is recorded as 4.6 % of dose. The “Total metabolites observed in the urine” value in series [2] was 13%.
As for `OCCc1ccc(O)c(O)c1` [Hydroxytyrosol, 2-(3,4-dihydroxyphenyl) ethyl alcohol, reference compound], in series [1], the HT in bile is recorded as 0.079 % of dose.
For `C/C=C1/[C@H](O[C@@H]2O[C@H](CO)[C@@H](O)[C@H](O)[C@H]2O)OC=C(C(=O)OC)[C@H]1CC(=O)OCCc1ccc(O)c(O)c1` [Oleuropein, reference compound], the Ole in bile in series [1] was 3.22 % of dose. The “Detection of intact Ole and metabolites in urine” value in series [2] (listed as Ole) is “not detected at all”.
